Common to all, as to assay type: cell-based
The test system of test [1] is MDA-MB-231 (breast cancer). Kind of test: MTT antiproliferative assay, MDA-MB-231. The note with it: Homo sapiens, MDA-MB-231, 10 μM, 48 or 72 h, read-out: inhibition of cell growth, MDA-MB-231. On the procedure:
(§1) The antiproliferative activity of a test compound was determined in cell lines: MDA-MB-231 (breast cancer), HepG2 (liver cancer), SW620 (colon cancer), A375 (malignant melanoma), A431 (epidermoid carcinoma), A549 (lung adenocarcinoma), and HeLa ([…]). MDA-MB-231, HepG2, SW480, SW620, A375, and A431 cells were cultured in Dulbecco's modified Eagle's medium (DMEM) containing 10% fetal bovine serum (FBS). HeLa cells were cultured in MEM/EBSS (MEM) containing 10% FBS. A549 cells were maintained in Kaighn's modification of Ham's F-12 medium containing 10% FBS. The colorimetric MTT (3-(4,5-dimethylthiazol-2-yl)-2,5-diphenyltetrazolium bromide) assay was used to measure the cell viability of different cells following treatment with the test compound.
(§2) Briefly cells were seeded in a 96 well plate at a density of 2,000-5,000 cells/well. Following attachment, the cells were treated with the test compound in media at various concentrations ranging from 0.137 to 100 μM or at a single concentration of 10 μM. After the cells were incubated at 37° C. for 48 or 72 h, MTT (20 μL, 5 mg/mL in PBS) was added to each well and the cells were incubated for another 4 h at 37° C. The supernatant was removed carefully and 150 μL of DMSO was added to each well to dissolve the MTT formazan crystals. The plate was shaken for 15-20 min and the absorbance value of each well was determined using a multi-well plate reader at 490 nm. The wells treated with DMSO were taken as a vehicle control. Data were also obtained similarly for all the replicates and the percentage viability was determined with respect to the DMSO-treated cells. The results are summarized in Table 1 below, wherein A represents no less than 80% inhibition of cell growth at 10 μM; B represents no less than 50% but less than 80% inhibition of cell growth at 10 μM; C represents no less than 30% but less than 50% inhibition of cell growth at 10 μM; and D represents less than 30% inhibition of cell growth at 10 μM.
For orientation: Tetrazolium assays rely on reduction of a dye to a coloured formazan, in cell work by metabolically active cells.

The test system of a further test is HeLa (ovarian cancer). The test is described as follows: MTT antiproliferative assay, HeLa. The note with it: Homo sapiens, 48 or 72 h, read-out: inhibition of cell growth, HELA. On the procedure: as §1, §2
Another test concerns SW620 (colon cancer). The test is described as follows: MTT antiproliferative assay, SW620. The note with it: Homo sapiens, SW-620, SW620, 10 μM, 48 or 72 h, read-out: inhibition of cell growth, SW620. On the procedure:
as §1, §2

Test [2] relates to A549 (lung adenocarcinoma). The test is described as follows: MTT antiproliferative assay, A549. To be noted: Homo sapiens, A549, 10 μM, 48 or 72 h, read-out: inhibition of cell growth, A549. As for the experimental part:
as §1, §2

Test [3] deals with A431 (epidermoid carcinoma). The test is described as follows: MTT antiproliferative assay, A431. The note with it: Homo sapiens, A-431, A431, 10 μM, 48 or 72 h, read-out: inhibition of cell growth, A431. As for the experimental part: as §1, §2
The test system of test [4] is A375 (malignant melanoma). Kind of test: MTT antiproliferative assay, A375. To be noted: Homo sapiens, A-375, A375, 10 μM, 48 or 72 h, read-out: inhibition of cell growth, A375. As for the experimental part: as §1, §2
The test system of the next test is HepG2 (liver cancer). The test is described as follows: MTT antiproliferative assay, HepG2. The note with it: Homo sapiens, HepG2, 10 μM, 48 or 72 h, read-out: inhibition of cell growth, HepG2. As for the experimental part: as §1, §2

Bounds are passed on as bounds.

With `CCCC(=O)O[C@H]1C(=O)C=C2C(=CC=C3[C@@]2(C)CC[C@@]2(C)[C@@H]4C[C@](C)(C(=O)NC)CC[C@]4(C)CC[C@]32C)[C@]1(C)OC` [Compound A23, (3R,4S,6bS,8aS,11R,12aR,12bS,14aR)-4-methoxy-4,6b,8a,11,12b,14a-hexamethyl-11-(methylcarbamoyl)-2-oxo-2,3,4,6b,7,8,8a,9,10,11,12,12a,12b,13,14,14a-hexadecahydropicen-3-yl butyrate], the inhibition (as a rule, the share of the control response that was lost under treatment) at 10 µM in test [1] was ≥ 80%; in the test with HeLa (ovarian cancer), ≥ 80%; with SW620 (colon cancer), ≥ 80%; in test [2], ≥ 80%; in test [3], ≥ 80%; in test [4], 50 to 80%. Also, the inhibition at 10 µM in the test with HepG2 (liver cancer) is ≥ 80%.
`CCCC(=O)O[C@H]1C(O)C=C2C(=CC=C3[C@@]2(C)CC[C@@]2(C)[C@@H]4C[C@](C)(C(=O)OC)CC[C@]4(C)CC[C@]32C)[C@]1(C)OC` (stereo partly drawn) [Compound A25, methyl (2R,4aS,6aS,9S,10S,12bR,14aS,14bR)-10-(butyryloxy)-11-hydroxy-9-methoxy-2,4a,6a,9,12b,14a-hexamethyl-1,2,3,4,4a,5,6,6a,9,10,11,12b,13,14,14a,14b-hexadecahydropicene-2-carboxylate]: the inhibition at 10 µM (in test [1]; in the test with HeLa (ovarian cancer); in the test on SW620 (colon cancer); in test [2]; in test [3]; in test [4]) was < 30% throughout. For the same compound, in the test with HepG2 (liver cancer), the inhibition at 10 µM is < 30%.
For the compound `CNC1(O)C(=O)C=C2C(=CC=C3[C@@]2(C)CC[C@@]2(C)[C@@H]4C[C@](C)(C(=O)OC)CC[C@]4(C)CC[C@]32C)[C@]1(C)OC` (stereo partly drawn) [Compound A26, methyl (2R,4aS,6aS,9S,12bR,14aS,14bR)-10-hydroxy-9-methoxy-2,4a,6a,9,12b,14a-hexamethyl-10-(methylamino)-11-oxo-1,2,3,4,4a,5,6,6a,9,10,11,12b,13,14,14a,14b-hexadecahydropicene-2-carboxylate], the inhibition at 10 µM in test [1] is 30 to 50%; in the test on HeLa (ovarian cancer), 30 to 50%; with SW620 (colon cancer), 30 to 50%; in test [2], < 30%; in test [3], 30 to 50%; in test [4], 30 to 50%. Also, the inhibition at 10 µM with HepG2 (liver cancer) was in the range of 30 to 50%.
With `CCO[C@]1(C)C(=O)C(=O)C=C2C1=CC=C1[C@@]2(C)CC[C@@]2(C)[C@@H]3C[C@](C)(C(=O)O)CC[C@]3(C)CC[C@]12C` [Compound A28, (2R,4aS,6aS,9S,12bR,14aS,14bR)-9-ethoxy-2,4a,6a,9,12b,14a-hexamethyl-10,11-dioxo-1,2,3,4,4a,5,6,6a,9,10,11,12b,13,14,14a,14b-hexadecahydropicene-2-carboxylic acid], the inhibition at 10 µM in test [1] is 50 to 80%; with HeLa (ovarian cancer) it was ≥ 80%; in the test on SW620 (colon cancer) it was 30 to 50%; in test [2], 30 to 50%; in test [3], 50 to 80%; in test [4] it was 30 to 50%. The inhibition at 10 µM in the test with HepG2 (liver cancer) lay in the range of 50 to 80%.
Consider `CO[C@@]1(C)C2=CC=C3[C@@](C)(CC[C@@]4(C)[C@@H]5C[C@](C)(C(=O)O)CC[C@]5(C)CC[C@]34C)C2=CC(O)C1O` (stereo partly drawn) [Compound A29, (2R,4aS,6aS,9S,12bR,14aS,14bR)-10,11-dihydroxy-9-methoxy-2,4a,6a,9,12b,14a-hexamethyl-1,2,3,4,4a,5,6,6a,9,10,11,12b,13,14,14a,14b-hexadecahydropicene-2-carboxylic acid], for which the inhibition at 10 µM in test [1] was < 30%; in the test with HeLa (ovarian cancer), 50 to 80%; in the test with SW620 (colon cancer), < 30%; in test [2], < 30%; in test [3], < 30%; in test [4], < 30%. Besides, in the test on HepG2 (liver cancer), the inhibition at 10 µM was < 30%.
`CO[C@@]1(C)C2=CC=C3[C@@](C)(CC[C@@]4(C)[C@@H]5C[C@](C)(C(=O)O)CC[C@]5(C)CC[C@]34C)C2=CC(=O)/C1=C\C#N` [Compound A30, (2R,4aS,6aS,9S,10Z,12bR,14aS,14bR)-10-(cyanomethylidene)-9-methoxy-2,4a,6a,9,12b,14a-hexamethyl-11-oxo-1,2,3,4,4a,5,6,6a,9,10,11,12b,13,14,14a,14b-hexadecahydropicene-2-carboxylic acid]: the inhibition at 10 µM is ≥ 80% in test [1]; ≥ 80% with HeLa (ovarian cancer); ≥ 80% with SW620 (colon cancer); 30 to 50% in test [2]; ≥ 80% in test [3]; 50 to 80% in test [4]. Besides, the inhibition at 10 µM in the test with HepG2 (liver cancer) is ≥ 80%.
Turning to `CO[C@@]1(C)C2=CC=C3[C@@](C)(CC[C@@]4(C)[C@@H]5C[C@](C)(C(=O)O)CC[C@]5(C)CC[C@]34C)C2=CC(=O)/C1=C/C#N` [Compound A31, (2R,4aS,6aS,9S,10E,12bR,14aS,14bR)-10-(cyanomethylidene)-9-methoxy-2,4a,6a,9,12b,14a-hexamethyl-11-oxo-1,2,3,4,4a,5,6,6a,9,10,11,12b,13,14,14a,14b-hexadecahydropicene-2-carboxylic acid], the inhibition at 10 µM is ≥ 80% in test [1]; ≥ 80% with HeLa (ovarian cancer); ≥ 80% in the test on SW620 (colon cancer); 50 to 80% in test [2]; 50 to 80% in test [3]; 50 to 80% in test [4]. Moreover, the inhibition at 10 µM with HepG2 (liver cancer) lay within 50 to 80%.
Consider `COC(=O)[C@]1(C)CC[C@]2(C)CC[C@]3(C)C4=CC=C5C(=CC(=O)C(=O)C5(C)O)[C@]4(C)CC[C@@]3(C)[C@@H]2C1` (stereo partly drawn) [Compound A32, methyl (2R,4aS,6aS,12bR,14aS,14bR)-9-hydroxy-2,4a,6a,9,12b,14a-hexamethyl-10,11-dioxo-1,2,3,4,4a,5,6,6a,9,10,11,12b,13,14,14a,14b-hexadecahydropicene-2-carboxylate], for which the inhibition at 10 µM in test [1] was ≥ 80%; in the test with HeLa (ovarian cancer) it was ≥ 80%; in the test with SW620 (colon cancer), ≥ 80%; in test [2], ≥ 80%; in test [3] it was ≥ 80%; in test [4] it was 50 to 80%. Moreover, the inhibition at 10 µM with HepG2 (liver cancer) is ≥ 80%.
On to `COC(=O)[C@]1(C)CC[C@]2(C)CC[C@]3(C)C4=CC=C5C(=CC(=O)/C(=C\C#N)C5(C)O)[C@]4(C)CC[C@@]3(C)[C@@H]2C1` (stereo partly drawn) [Compound A33, methyl (2R,4aS,6aS,10Z,12bR,14aS,14bR)-10-(cyanomethylidene)-9-hydroxy-2,4a,6a,9,12b,14a-hexamethyl-11-oxo-1,2,3,4,4a,5,6,6a,9,10,11,12b,13,14,14a,14b-hexadecahydropicene-2-carboxylate], for which the inhibition at 10 µM was ≥ 80% in test [1]; ≥ 80% in the test with HeLa (ovarian cancer); ≥ 80% in the test on SW620 (colon cancer); 30 to 50% in test [2]; 50 to 80% in test [3]; 50 to 80% in test [4]. Also, the inhibition at 10 µM with HepG2 (liver cancer) is ≥ 80%.
